Activity calls are given as the source filed them.
What was measured:
[1] = target: T1, Hexokinase HKDC1 (Homo sapiens, UniProt Q2TB90); assay: activation of HKDC1 glucose phosphorylation – biochemical, W721R variant, dose response (AID 504730); type: functional
T1 sequence (Q2TB90 whole entry): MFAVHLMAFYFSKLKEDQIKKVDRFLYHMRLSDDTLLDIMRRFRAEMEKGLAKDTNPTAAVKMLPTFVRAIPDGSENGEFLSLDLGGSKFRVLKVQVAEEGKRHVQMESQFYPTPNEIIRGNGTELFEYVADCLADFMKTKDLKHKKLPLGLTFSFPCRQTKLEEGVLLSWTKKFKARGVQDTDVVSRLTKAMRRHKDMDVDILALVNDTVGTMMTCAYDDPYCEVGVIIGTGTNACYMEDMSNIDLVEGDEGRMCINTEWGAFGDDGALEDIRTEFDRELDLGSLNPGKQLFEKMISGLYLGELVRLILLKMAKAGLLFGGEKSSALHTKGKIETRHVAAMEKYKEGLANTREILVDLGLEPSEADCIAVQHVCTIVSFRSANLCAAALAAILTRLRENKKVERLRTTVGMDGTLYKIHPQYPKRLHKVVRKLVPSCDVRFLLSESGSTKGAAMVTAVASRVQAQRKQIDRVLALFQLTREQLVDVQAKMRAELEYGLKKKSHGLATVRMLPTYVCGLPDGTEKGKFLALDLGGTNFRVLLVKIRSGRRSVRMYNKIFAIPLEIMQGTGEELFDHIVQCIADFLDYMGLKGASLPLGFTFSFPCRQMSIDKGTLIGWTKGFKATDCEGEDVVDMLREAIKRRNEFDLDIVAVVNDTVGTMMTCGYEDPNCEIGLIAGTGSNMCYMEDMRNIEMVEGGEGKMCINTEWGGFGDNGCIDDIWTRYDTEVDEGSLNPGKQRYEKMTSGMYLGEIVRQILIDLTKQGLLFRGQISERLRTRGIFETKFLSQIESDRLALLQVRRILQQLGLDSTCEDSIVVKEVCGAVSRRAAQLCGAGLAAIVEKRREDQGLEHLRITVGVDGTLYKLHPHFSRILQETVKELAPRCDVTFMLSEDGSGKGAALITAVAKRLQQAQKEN

[2] = target: Hexokinase-1 (Homo sapiens, UniProt P19367); assay: HK1 enzyme activation by HKDC1 hits – biochemical, selectivity assay for HKDC1 activator project, dose response (AID 504762); type: functional
[3] = cells; type: functional
[4] = target: T2, Microphthalmia-associated transcription factor (Homo sapiens, UniProt O75030); assay: reducers of TRPM1 reporter luminescence, concentration series – cell-based, SK-MEL-5, cherry-picked, set 3, MITF inhibitor project, dose response (AID 493073); type: functional;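 note: SK-MEL-5 melanoma cells with luciferase driven by the MITF target TRPM1 promoter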
T2 sequence (O75030 whole entry): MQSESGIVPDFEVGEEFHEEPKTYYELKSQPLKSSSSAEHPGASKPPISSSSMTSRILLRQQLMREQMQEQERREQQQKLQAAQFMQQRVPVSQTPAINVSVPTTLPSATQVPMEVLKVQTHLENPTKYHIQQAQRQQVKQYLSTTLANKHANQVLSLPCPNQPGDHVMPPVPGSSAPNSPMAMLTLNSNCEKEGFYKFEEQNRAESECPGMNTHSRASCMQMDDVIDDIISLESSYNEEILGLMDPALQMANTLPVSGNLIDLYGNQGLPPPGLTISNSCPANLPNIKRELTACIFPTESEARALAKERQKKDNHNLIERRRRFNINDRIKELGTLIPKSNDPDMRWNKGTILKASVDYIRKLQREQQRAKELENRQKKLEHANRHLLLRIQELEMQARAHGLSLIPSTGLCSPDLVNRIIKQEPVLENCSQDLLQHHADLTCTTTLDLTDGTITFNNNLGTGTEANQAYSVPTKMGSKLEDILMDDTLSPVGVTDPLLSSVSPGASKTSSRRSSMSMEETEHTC

[5] = target: T3, Heat shock factor protein 1 (Mus musculus, UniProt P38532); assay: enhancement of HSF1-driven luciferase signal – cell-based, NIH3T3, luminescence, dose retest, confirmation (AID 435004); type: functional;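 note: stress induced by proteasome inhibitor MG132 added 30 min after compound; luciferase reporter driven by HSF1 response element in NIH3T3 cells; actives raise luminescence as potentiators of the MG132 stress response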
T3 sequence (P38532 whole entry): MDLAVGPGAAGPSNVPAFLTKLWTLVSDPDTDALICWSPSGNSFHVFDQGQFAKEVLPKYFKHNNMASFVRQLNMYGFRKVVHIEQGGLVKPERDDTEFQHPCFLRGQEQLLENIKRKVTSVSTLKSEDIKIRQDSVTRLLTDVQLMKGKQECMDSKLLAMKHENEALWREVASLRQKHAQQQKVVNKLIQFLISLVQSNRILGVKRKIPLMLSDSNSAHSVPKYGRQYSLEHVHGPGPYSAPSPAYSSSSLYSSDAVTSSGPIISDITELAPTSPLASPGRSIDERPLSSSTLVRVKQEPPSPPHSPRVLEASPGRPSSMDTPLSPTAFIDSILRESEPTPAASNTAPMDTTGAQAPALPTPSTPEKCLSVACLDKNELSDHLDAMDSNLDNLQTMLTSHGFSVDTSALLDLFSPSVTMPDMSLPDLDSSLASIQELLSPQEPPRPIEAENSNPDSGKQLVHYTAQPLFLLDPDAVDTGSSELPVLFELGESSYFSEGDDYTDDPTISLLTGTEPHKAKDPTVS

[6] = THP-1 cell cytotoxicity, dose response, cytotoxicity control for non-replicating M. tuberculosis project (AID 489025); type: functional
[7] = target: T4, Protein RecA (Mycobacterium tuberculosis, UniProt P9WHJ3); assay: Fluorescence Cell-Free Homogeneous Dose Retest to Identify Inhibitors of RecA-Intein Splicing Activity. [Related pubchem assays (depositor defined):AID2097, AID2223, AID489010, AID492950]; type: functional
T4 sequence (P9WHJ3 whole entry): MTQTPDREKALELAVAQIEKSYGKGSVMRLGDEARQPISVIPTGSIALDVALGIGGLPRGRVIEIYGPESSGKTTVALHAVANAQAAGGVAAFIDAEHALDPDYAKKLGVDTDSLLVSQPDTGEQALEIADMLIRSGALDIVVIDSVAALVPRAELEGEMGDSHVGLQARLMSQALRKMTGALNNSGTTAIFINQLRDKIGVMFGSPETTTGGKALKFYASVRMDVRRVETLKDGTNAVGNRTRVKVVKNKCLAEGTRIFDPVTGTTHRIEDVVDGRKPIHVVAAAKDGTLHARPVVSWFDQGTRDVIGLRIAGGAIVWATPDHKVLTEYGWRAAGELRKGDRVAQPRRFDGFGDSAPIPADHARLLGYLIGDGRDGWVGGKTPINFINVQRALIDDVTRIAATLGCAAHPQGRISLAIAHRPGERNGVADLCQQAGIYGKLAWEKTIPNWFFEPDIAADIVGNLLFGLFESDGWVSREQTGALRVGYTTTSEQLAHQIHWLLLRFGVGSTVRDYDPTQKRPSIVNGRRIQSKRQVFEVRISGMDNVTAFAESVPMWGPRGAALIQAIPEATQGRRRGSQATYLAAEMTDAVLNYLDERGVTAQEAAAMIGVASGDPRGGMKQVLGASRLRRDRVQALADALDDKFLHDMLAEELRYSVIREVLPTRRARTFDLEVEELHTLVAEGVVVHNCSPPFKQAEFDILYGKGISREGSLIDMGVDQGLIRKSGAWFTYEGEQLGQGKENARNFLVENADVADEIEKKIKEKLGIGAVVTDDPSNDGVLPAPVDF

[8] = Vero E6 cell cytotoxicity, dose response, cytotoxicity control for non-replicating M. tuberculosis project, secondary assay (AID 492998); type: functional, VeroE6; conditions: Vero C1008
[9] = microbe, parasite or virus in culture; type: functional; conditions: Mycobacterium tuberculosis
[10] = target: T5, Replicative DNA helicase DnaB (Mycobacterium tuberculosis, UniProt P9WMR3); assay: DnaB intein splicing inhibitors, dose response, biochemical, cell-free fluorescence (AID 449749); type: functional
T5 sequence (P9WMR3 whole entry): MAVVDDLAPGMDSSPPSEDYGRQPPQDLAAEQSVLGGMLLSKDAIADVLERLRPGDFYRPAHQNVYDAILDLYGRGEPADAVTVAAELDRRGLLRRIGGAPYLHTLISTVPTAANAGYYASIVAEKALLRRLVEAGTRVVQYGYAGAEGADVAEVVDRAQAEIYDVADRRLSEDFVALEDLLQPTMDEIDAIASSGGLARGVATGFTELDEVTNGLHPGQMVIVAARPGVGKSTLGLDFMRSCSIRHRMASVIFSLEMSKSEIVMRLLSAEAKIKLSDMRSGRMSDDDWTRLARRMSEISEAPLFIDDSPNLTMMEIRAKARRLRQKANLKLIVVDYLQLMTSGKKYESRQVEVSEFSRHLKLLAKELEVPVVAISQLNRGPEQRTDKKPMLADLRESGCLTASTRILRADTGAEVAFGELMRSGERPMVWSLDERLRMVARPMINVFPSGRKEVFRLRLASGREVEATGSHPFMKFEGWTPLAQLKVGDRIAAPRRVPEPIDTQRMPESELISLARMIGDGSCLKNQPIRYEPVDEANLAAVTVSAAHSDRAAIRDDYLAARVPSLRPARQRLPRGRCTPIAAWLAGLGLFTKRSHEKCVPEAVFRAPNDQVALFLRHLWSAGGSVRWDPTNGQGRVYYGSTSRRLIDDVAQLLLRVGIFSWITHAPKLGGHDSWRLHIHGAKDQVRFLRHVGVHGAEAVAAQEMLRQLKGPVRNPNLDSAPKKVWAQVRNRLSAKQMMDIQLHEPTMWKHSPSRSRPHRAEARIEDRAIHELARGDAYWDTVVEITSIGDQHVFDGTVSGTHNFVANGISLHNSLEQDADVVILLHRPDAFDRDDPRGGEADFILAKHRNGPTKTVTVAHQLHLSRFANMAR

[11] = target: T6, Runt-related transcription factor 1/Core-binding factor subunit beta (Homo sapiens, UniProt Q01196+Q13951); assay: Runt domain/CBFb-SMMHC interaction disruptors – biochemical, TR-FRET (AID 1438); type: protein assay
[12] = target: T6, Runt-related transcription factor 1/Core-binding factor subunit beta; assay: disruptors of Runt domain/CBFb-SMMHC interaction – biochemical, FRET, Cerulean-Runt, Venus-CBFb-SMMHC, uHTS, […] (AID 1434); type: protein assay
[13] = system: T-cell; assay: loss of vesicle association with mouse CD8+ T cells – mouse 2C CD8+ T cells, flow cytometry, dose response (AID 485284); type: functional
[14] = target: T7, Sphingosine 1-phosphate receptor 4 (Homo sapiens, UniProt O95977); assay: Late-stage fluorescence dose response cell-based assay to identify agonists of the Sphingosine 1-Phosphate Receptor 4 (S1P4): purchased compounds EC50. [Related pubchem assays (depositor defined):AID1509, AID1523, AID1563, AID1686, AID1701, AID1801]; type: functional
T7 sequence (O95977 whole entry): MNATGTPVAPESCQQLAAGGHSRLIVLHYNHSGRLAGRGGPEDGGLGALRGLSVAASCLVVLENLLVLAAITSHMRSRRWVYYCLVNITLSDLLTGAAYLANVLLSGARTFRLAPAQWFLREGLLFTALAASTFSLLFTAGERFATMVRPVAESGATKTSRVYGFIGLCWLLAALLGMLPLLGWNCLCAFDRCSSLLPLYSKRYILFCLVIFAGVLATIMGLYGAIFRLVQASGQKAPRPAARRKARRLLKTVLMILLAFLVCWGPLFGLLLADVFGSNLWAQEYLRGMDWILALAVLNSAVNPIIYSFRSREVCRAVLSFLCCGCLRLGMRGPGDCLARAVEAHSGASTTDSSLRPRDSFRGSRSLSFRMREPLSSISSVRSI

T6 sequence (Q01196 whole entry, the tested form may be a part): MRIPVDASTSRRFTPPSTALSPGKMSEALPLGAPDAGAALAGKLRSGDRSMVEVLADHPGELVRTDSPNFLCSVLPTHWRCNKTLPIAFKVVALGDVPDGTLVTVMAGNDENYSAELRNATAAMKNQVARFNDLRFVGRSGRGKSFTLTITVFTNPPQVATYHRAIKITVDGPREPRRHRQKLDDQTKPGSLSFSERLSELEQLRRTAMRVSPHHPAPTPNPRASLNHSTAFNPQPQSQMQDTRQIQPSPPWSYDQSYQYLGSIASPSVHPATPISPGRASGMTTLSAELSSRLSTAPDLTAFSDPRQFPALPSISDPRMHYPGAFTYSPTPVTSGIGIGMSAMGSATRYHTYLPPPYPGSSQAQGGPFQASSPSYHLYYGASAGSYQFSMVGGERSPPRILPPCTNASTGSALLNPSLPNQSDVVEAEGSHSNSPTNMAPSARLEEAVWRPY
T6 sequence (Q13951 whole entry, the tested form may be a part): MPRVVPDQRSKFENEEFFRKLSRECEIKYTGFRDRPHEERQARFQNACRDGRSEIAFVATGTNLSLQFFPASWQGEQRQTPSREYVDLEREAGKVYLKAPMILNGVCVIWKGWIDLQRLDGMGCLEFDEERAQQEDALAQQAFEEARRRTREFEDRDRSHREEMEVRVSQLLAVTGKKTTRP
Hexokinase-1, sequence (P19367 whole entry): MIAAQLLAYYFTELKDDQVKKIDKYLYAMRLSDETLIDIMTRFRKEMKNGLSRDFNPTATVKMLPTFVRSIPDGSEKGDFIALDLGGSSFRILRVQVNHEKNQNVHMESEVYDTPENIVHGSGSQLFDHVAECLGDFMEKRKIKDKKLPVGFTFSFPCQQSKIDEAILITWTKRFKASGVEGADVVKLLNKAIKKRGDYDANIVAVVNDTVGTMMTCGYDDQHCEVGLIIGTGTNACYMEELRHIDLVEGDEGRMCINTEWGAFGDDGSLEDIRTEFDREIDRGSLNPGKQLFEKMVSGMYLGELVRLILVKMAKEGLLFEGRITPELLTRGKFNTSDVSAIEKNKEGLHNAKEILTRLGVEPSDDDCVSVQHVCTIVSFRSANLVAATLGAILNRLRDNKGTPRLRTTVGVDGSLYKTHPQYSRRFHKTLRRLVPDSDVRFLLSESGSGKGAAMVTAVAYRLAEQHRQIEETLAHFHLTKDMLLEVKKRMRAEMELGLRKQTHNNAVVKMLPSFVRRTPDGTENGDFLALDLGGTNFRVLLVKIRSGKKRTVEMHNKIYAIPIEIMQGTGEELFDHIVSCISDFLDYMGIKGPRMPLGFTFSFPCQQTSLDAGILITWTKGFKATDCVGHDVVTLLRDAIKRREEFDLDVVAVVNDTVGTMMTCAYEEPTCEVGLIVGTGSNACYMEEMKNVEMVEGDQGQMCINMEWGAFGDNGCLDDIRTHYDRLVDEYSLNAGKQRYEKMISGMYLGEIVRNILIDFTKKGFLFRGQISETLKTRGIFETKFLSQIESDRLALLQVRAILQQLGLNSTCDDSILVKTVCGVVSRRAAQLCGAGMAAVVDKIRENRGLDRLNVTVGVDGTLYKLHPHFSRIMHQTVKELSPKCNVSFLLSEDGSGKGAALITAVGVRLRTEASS

Structure (SMILES): COc1ccccc1C1=NN=C(Nc2cccc(S(=O)(=O)N(C)C)c2)SC1
- EC50 [1]: 19.5 µM (active)
- EC50 [2]: 20.1 µM (inactive)

Structure (SMILES): COC(=O)c1ccc2c(c1O)C(=O)c1ccccc1C2=O
- IC50 [3]: 4.52 µM (active)
- AC50 [4]: 1.61 µM (active)
- EC50 [5]: 3.73 µM (active)
- CC50 [6]: > 40 µM (active)
- EC50 [7]: 0.925 µM (active)
- CC50 [8]: > 20 µM (active)
- CC50 [9]: 24.2 µM (active)
- AC50 [10]: 51.4 µM (active)

Structure (SMILES): CCOC(=O)N1CCC(NC(=O)c2ccc3c(c2)N(C)CCS3)CC1
- IC50 [11]: > 100 µM (inactive)
- IC50 [12]: > 100 µM (inactive)

Structure (SMILES): Cc1ccc(S(=O)(=O)N2CCC(NC(=O)c3ccccc3)CC2)cc1
- EC50 [13]: 7.83 µM (active)

Structure (SMILES): Cc1nn(Cc2ccccc2)c(Cl)c1C(=O)OC(C)C(=O)NCc1ccccc1 (centres undefined)
- EC50 [14]: > 50 µM (inactive)

Reference: ChEMBL document CHEMBL1201862, “PubChem BioAssay data set” (2004)
